Measured values as given in US8933075B2, “Compounds useful as antiviral agents, compositions, and methods of use” (priority 2010, dated 2015).

What follows are compounds tested on A/Udorn/72 (H3N2) virus (assay: Plaque assay in MDCK cells: EC50 by reduction of plaque number). Conditions: MDCK.
Assay type: cell-based, influenza virus

SMILES | EC50
COc1cccc(-c2cc(CCCO)c(/C=C3\SC(=S)N(C4C5CC6CC(C5)CC4C6)C3=O)o2)c1 (stereo not shown) [Compound 352] | < 100 nM
COC(=O)c1cc(-c2ccc(/C=C3\SC(=S)N(C4CC5CCC4C5)C3=O)o2)ccc1OC (stereo not shown) [Compound 14] | < 100 nM
COc1cc(OC)cc(-c2cc(CCCOC[C@@H](O)CO)c(/C=C3\SC(=S)N(C4CC5CCC4C5)C3=O)o2)c1 (stereo partly drawn) [Compound 202, (Z)-3-(bicyclo[2.2.1]heptan-2-yl)-5-((3-(3-((S)-2,3-dihydroxypropoxy)propyl)-5-(3′,5′-dimethoxy-phenyl)-furan-2-yl)methylene)-2-thioxothiazolidin-4-one] | < 100 nM
COc1ccc(-c2ccc(/C=C3\SC(=S)N(C4CC5CCC4C5)C3=O)o2)cc1OCC(=O)N[C@@H](Cc1cnc[nH]1)C(=O)O (stereo partly shown) [Compound 82] | < 100 nM
COc1cccc(-c2cc(CCCO)c(/C=C3\SC(=S)N(C4CC5CCC4C5)C3=O)o2)c1 (stereo not shown) [Compound 353] | < 100 nM
COc1cc(OC)cc(-c2cc(CCCCCN3CCOCC3)c(/C=C3\SC(=S)N(C4CC5CCC4C5)C3=O)o2)c1 (stereo not shown) [Compound 360] | < 100 nM
COc1ccc(-c2ccc(/C=C3\SC(=S)N(C4CC5CCC4C5)C3=O)o2)cc1OCC(=O)N1CCC[C@H]1C(=O)O (stereo partly shown) [Compound 80] | < 100 nM
O=C1/C(=C/c2oc(-c3ccc(F)cc3)cc2CCCN2CCOCC2)SC(=S)N1C1CC2CCC1C2 (stereo not shown) [Compound 180] | < 100 nM
COc1cc(OC)cc(-c2cc(CCCCCO)c(/C=C3\SC(=S)N(C4C5CC6CC(C5)CC4C6)C3=O)o2)c1 (stereo not shown) [Compound 110] | < 100 nM
O=C1/C(=C/c2[nH]c(-c3ccc(Cl)cc3)cc2CCCO)SC(=S)N1C1C2CC3CC(C2)CC1C3 (stereo not shown) [Compound 234] | < 100 nM
CC(C)(C)OC(=O)N[C@@H](CC(N)=O)C(=O)OCCCCCc1cc(-c2ccc(Cl)cc2)sc1/C=C1\SC(=S)N(C2C3CC4CC(C3)CC2C4)C1=O (stereo partly shown) [Compound 308] | < 100 nM
Cn1c(/C=C2\SC(=S)N(C3CC4CCC3C4)C2=O)cc(C#CCCCO)c1-c1ccc(Cl)cc1 (stereo not shown) [Compound 265] | < 100 nM
O=C1/C(=C/c2ncc(-c3ccccc3)o2)SC(=S)N1C1CCCCCC1 [Compound 65] | < 100 nM
N=C(N)NCCCc1cc(-c2ccc(Cl)cc2)oc1/C=C1\SC(=S)N(C2CC3CCC2C3)C1=O (stereo not shown) [Compound 197] | < 100 nM
O=C1/C(=C/c2c[nH]c3ccccc23)SC(=S)N1C1CC2CCC1C2 (stereo not shown) [Compound 216, (Z)-5-((1H-indol-3-yl)methylene)-3-(bicyclo[2.2.1]heptan-2-yl)-2-thioxothiazolidin-4-one] | < 100 nM
COc1cc(OC)cc(-c2cc(CCCCCOC(=O)[C@H](CC(N)=O)NC(=O)OC(C)(C)C)c(/C=C3\SC(=S)N(C4CC5CCC4C5)C3=O)o2)c1 (stereo partly shown) [Compound 150] | < 100 nM
CCOC(=O)[C@@H]1CCCCN1C(=O)c1cc(-c2ccc(/C=C3\SC(=S)N(C4CC5CCC4C5)C3=O)o2)ccc1OC (stereo partly shown) [Compound 91] | < 100 nM
COc1cccc(-c2cc(CCCCCOC(=O)[C@H](CC(N)=O)NC(=O)OC(C)(C)C)c(/C=C3\SC(=S)N(C4CC5CCC4C5)C3=O)s2)c1 (stereo partly shown) [Compound 313] | < 100 nM
COc1cc(OC)cc(-c2cc(CCCNC(=O)[C@H](CC(C)C)NC(=O)OCC3c4ccccc4-c4ccccc43)c(/C=C3\SC(=S)N(C4CC5CCC4C5)C3=O)o2)c1 (stereo partly shown) [Compound 159] | < 100 nM
O=C1/C(=C/c2sc(-c3ccc(Cl)cc3)cc2C#CCCCO)SC(=S)N1C1C2CC3CC(C2)CC1C3 (stereo not shown) [Compound 290] | < 100 nM
CC(C)(C)OC(=O)N[C@@H](CC(N)=O)C(=O)OCCCC#Cc1cc(-c2cccc(Cl)c2)sc1/C=C1\SC(=S)N(C2C3CC4CC(C3)CC2C4)C1=O (stereo partly shown) [Compound 312] | < 100 nM

SMILES | EC50
COc1cc(OC)cc(-c2ccc(/C=C3\SC(=S)N(C4C5CC6CC(C5)CC4C6)C3=O)[nH]2)c1 (stereo not shown) [Compound 59] | < 100 nM
COc1cc(OC)cc(-c2cc(CCCN3CCOCC3)c(/C=C3\SC(=S)N(C4CC5CCC4C5)C3=O)o2)c1 (stereo not shown) [Compound 181] | < 100 nM
CCOC(=O)c1c(F)ccc(-c2ccc(/C=C3\SC(=S)N(C4CCCC4)C3=O)o2)c1F [Compound 45] | < 100 nM
COC(=O)C[C@H](NC(=O)c1cc(-c2ccc(/C=C3\SC(=S)N(C4CC5CCC4C5)C3=O)o2)ccc1OC)C(=O)O (stereo partly shown) [Compound 90] | 100 to 250 nM
O=C1/C(=C/c2oc(-c3ccc(F)cc3)cc2CCCCCCO)SC(=S)N1C1CC2CCC1C2 (stereo not shown) [Compound 107] | < 100 nM
O=C1/C(=C/c2oc(-c3ccc(Cl)cc3)cc2CCCCO)SC(=S)N1C1C2CC3CC(C2)CC1C3 (stereo not shown) [Compound 335] | < 100 nM
O=C1/C(=C/c2oc(-c3ccc(Cl)cc3)cc2CCCN2CCNCC2)SC(=S)N1C1C2CC3CC(C2)CC1C3 (stereo not shown) [Compound 191] | < 100 nM
COCOc1cc(-c2ccc(/C=C3\SC(=S)N(C4C5CC6CC(C5)CC4C6)C3=O)o2)cc(OC)c1OC (stereo not shown) [Compound 25] | < 100 nM
COc1ccc(-c2ccc(/C=C3\SC(=S)N(C4CC5CCC4C5)C3=O)o2)cc1OCC(=O)N[C@@H](Cc1ccccc1)C(=O)O (stereo partly shown) [Compound 79] | < 100 nM
COc1cc(OC)cc(-c2cc(CCCNC(=O)[C@@H](N)CC(=O)O)c(/C=C3\SC(=S)N(C4CC5CCC4C5)C3=O)o2)c1 (stereo partly shown) [Compound 169] | < 100 nM
O=C1/C(=C/c2oc(-c3ccc(F)cc3)cc2CCCN2CCOCC2)SC(=S)N1C1C2CC3CC(C2)CC1C3 (stereo not shown) [Compound 183] | < 100 nM
CC(C)(C)OC(=O)N[C@@H](CC(N)=O)C(=O)N1CCN(CCCCCc2cc(-c3ccc(Cl)cc3)[nH]c2/C=C2\SC(=S)N(C3CC4CCC3C4)C2=O)CC1 (stereo partly shown) [Compound 255] | < 100 nM
O=C1/C(=C/c2ccc(-c3ccc(-c4ccccc4)cc3)o2)SC(=S)N1C1CC2CCC1C2 (stereo not shown) [Compound 226] | < 100 nM
COc1cc(C)c(-c2ccc(/C=C3\SC(=S)N(C4CCCC4)C3=O)o2)cc1C [Compound 51] | < 100 nM
O=C1/C(=C/c2cc3ccccc3s2)SC(=S)N1C1CC2CCC1C2 (stereo not shown) [Compound 214, (Z)-5-(benzo[b]thiophen-2-ylmethylene)-3-(bicyclo[2.2.1]heptan-2-yl)-2-thioxothiazolidin-4-one] | < 100 nM
COc1cccc(-c2cc(CCCO)c(/C=C3\SC(=S)N(C4CC5CCC4C5)C3=O)[nH]2)c1 (stereo not shown) [Compound 232] | < 100 nM
COc1cc(OC)cc(-c2cc(CCCN3CCNCC3)c(/C=C3\SC(=S)N(C4CC5CCC4C5)C3=O)o2)c1 (stereo not shown) [Compound 188] | < 100 nM
Cn1c(-c2ccc(Cl)cc2)cc(CCCCCO)c1/C=C1\SC(=S)N(C2C3CC4CC(C3)CC2C4)C1=O (stereo not shown) [Compound 261] | < 100 nM
COc1cc(OC)cc(-c2cc(/C=C/C(=O)O)c(/C=C3\SC(=S)N(C4C5CC6CC(C5)CC4C6)C3=O)o2)c1 (stereo not shown) [Compound 131] | < 100 nM
COc1cc(OC)cc(-c2ccc(/C=C3\SC(=S)N(C4CC5CCC4C5)C3=O)[nH]2)c1 (stereo not shown) [Compound 58] | < 100 nM
COc1cc(C)c(-c2ccc(/C=C3\SC(=S)N(C4CCCCCCC4)C3=O)o2)cc1C [Compound 49] | < 100 nM

SMILES | EC50
COc1cc(OC)cc(-c2cc(CCCNC(=O)[C@H](CC(=O)OC(C)(C)C)NC(=O)OC(C)(C)C)c(/C=C3\SC(=S)N(C4CC5CCC4C5)C3=O)o2)c1 (stereo partly shown) [Compound 158] | < 100 nM
COc1ccc2c(O)c(-c3ccc(/C=C4\SC(=S)N(C5C6CC7CC(C6)CC5C7)C4=O)o3)c(=O)oc2c1 (stereo not shown) [Compound 74] | 100 to 250 nM
COc1cccc(-c2cc(CCCCCO)c(/C=C3\SC(=S)N(C4C5CC6CC(C5)CC4C6)C3=O)o2)c1 (stereo not shown) [Compound 347] | < 100 nM
COc1cc(O)cc(-c2cc(CCCNC(=O)[C@@H](N)CCCN=C(N)N)c(/C=C3\SC(=S)N(C4CC5CCC4C5)C3=O)o2)c1 (stereo partly shown) [Compound 175] | < 100 nM
Nc1ccc(-c2ccc(/C=C3\SC(=S)N(C4CC5CCC4C5)C3=O)o2)cc1 (stereo not shown) [Compound 11] | < 100 nM
O=C1/C(=C/c2coc3ccc(Br)cc3c2=O)SC(=S)N1C1C2CC3CC(C2)CC1C3 (stereo not shown) [Compound 210, 3-adamantan-2-yl-5-(6-bromo-4-oxo-4H-chromen-3-ylmethylene)-2-thioxo-thiazolidin-4-one] | < 100 nM
COc1cccc(-c2cc(CCCCCOC(=O)[C@H](CC(N)=O)NC(=O)OC(C)(C)C)c(/C=C3\SC(=S)N(C4C5CC6CC(C5)CC4C6)C3=O)s2)c1 (stereo partly shown) [Compound 310] | < 100 nM
O=C1/C(=C/c2ccco2)SC(=S)N1C1C2CC3CC(C2)CC1C3 (stereo not shown) [Compound 209, (Z)-3-(adamantan-2-yl)-5-(furan-2-ylmethylene)-2-thioxothiazolidin-4-one] | 250 to 1000 nM
COc1cc(OC)cc(-c2cc(CCCOC(=O)[C@H](CCCNC(=O)OC(C)(C)C)NC(=O)OC(C)(C)C)c(/C=C3\SC(=S)N(C4CC5CCC4C5)C3=O)o2)c1 (stereo partly shown) [Compound 139] | < 100 nM
Nc1ccc(-c2ccc(/C=C3\SC(=S)N(C4C5CC6CC(C5)CC4C6)C3=O)o2)cc1 (stereo not shown) [Compound 12] | < 100 nM
CC(C)(C)N1C(=O)C[C@@H](C(=O)OCCCc2cc(-c3ccc(Cl)cc3)[nH]c2/C=C2\SC(=S)N(C3C4CC5CC(C4)CC3C5)C2=O)NC1=O (stereo partly shown) [Compound 252] | < 100 nM
COc1cccc(-c2cc(CCCO)c(/C=C3\SC(=S)N(C4C5CC6CC(C5)CC4C6)C3=O)s2)c1 (stereo not shown) [Compound 282] | < 100 nM
COc1cc(OC)cc(-c2cc(CCCOC(=O)[C@@H](NC(=O)OC(C)(C)C)c3ccccc3)c(/C=C3\SC(=S)N(C4CC5CCC4C5)C3=O)o2)c1 (stereo partly shown) [Compound 146] | < 100 nM
CC(=O)OCCCc1cc(-c2ccc(Cl)cc2)[nH]c1/C=C1\SC(=S)N(C2CC3CCC2C3)C1=O (stereo not shown) [Compound 231] | < 100 nM
Cn1c(/C=C2\SC(=S)N(C3CC4CCC3C4)C2=O)cc(C#CCCCOC(=O)[C@H](CC(N)=O)NC(=O)OC(C)(C)C)c1-c1ccc(Cl)cc1 (stereo partly shown) [Compound 272] | < 100 nM
O=C1/C(=C/c2oc(-c3ccc(F)cc3)cc2CCCN2CCNCC2)SC(=S)N1C1C2CC3CC(C2)CC1C3 (stereo not shown) [Compound 189] | < 100 nM
COc1cc(O)cc(-c2cc(CCCOC(=O)[C@H](CC(=O)OC(C)(C)C)NC(=O)OC(C)(C)C)c(/C=C3\SC(=S)N(C4CC5CCC4C5)C3=O)o2)c1 (stereo partly shown) [Compound 149] | < 100 nM
COc1cc(OC)cc(-c2cc(CCCCCO)c(/C=C3\SC(=S)N(C4CC5CCC4C5)C3=O)o2)c1 (stereo not shown) [Compound 109] | < 100 nM
COc1cc(-c2ccc(/C=C3\SC(=S)N(C4C5CC6CC(C5)CC4C6)C3=O)o2)cc(OC)c1O (stereo not shown) [Compound 7] | < 100 nM
